Measurements as given in patent US4960769A, “5,6,7,8-tetrahydro-4H-isoxazolo[4,5-c]-azepine derivatives” (H. Lundbeck A/S, priority 1987, dated 1990).
pIC50: −log10 of the molar value. Counter-ions that a name gives are not always drawn. Like-named read-outs stand apart in the source and are kept apart here.

Tests used:
[1] = target: T1, central muscarinic M-1 receptors (Rattus norvegicus, UniProt P08482); test: biochemical; conditions: rat brain homogenate, 1.0 nM 3H-pirenzepine, 60 min at 25 °C; read-out: Binding IC50, 3H-Pirenzepine
T1 sequence (P08482 1-460): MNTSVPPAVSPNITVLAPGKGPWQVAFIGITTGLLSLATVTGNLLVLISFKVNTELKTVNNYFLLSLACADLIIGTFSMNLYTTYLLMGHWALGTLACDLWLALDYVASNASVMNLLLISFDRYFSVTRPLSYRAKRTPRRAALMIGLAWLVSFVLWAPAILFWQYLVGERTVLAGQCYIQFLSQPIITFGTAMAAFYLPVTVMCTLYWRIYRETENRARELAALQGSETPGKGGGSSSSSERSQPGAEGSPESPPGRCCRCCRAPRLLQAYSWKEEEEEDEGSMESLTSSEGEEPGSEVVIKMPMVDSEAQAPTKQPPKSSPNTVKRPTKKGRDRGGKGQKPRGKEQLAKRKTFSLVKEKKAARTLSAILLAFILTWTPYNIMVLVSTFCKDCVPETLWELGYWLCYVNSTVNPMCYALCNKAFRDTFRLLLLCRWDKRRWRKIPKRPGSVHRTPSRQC
Method: ^3 H-pirenzepine binding was performed essentially as described by Watson et al., 1983, the conditions being very much the same as for ^3 H-oxotremorine binding, except that aliquots were incubated with 1.0 nM ^3 H-pirenzepine for 60 min. at 25° C. and that the reaction was stopped by direct filtration followed by 3 washes with 4 ml buffer.

[2] = target: central cholinergic receptors; test: 3H-oxotremorine M binding, rat brain homogenates; conditions: rat brain homogenate, pH 7.4, 40 min at 30 °C; read-out: Binding IC50, 3H-Oxo-M
Method: Briefly, rat brains were homogenized in 100 vol (w/v) 10 mM Na,K-phosphate buffer (pH 7.4) and aliquots incubated with ^3 H-oxotremorine M (84.9 Ci/mmol, NEN) alone or in the presence of test compound in a total volume of 1.5 ml for 40 min. at 30° C. The reaction was stopped by adding 5 ml ice-cold buffer and filtered through Whatman GF/B filters soaked previously in 0.1% polyethylenimin (Sigma) for minimum 30 min. The filters were washed once with the same volume of buffer, transferred to scintillation vials and extracted in scintillation fluid (Pico-fluor 15, Packard) for at least two hours before counted in a liquid scintillation spectrometer (Beckman LS 1800). Non-specific binding was estimated at 10 μM atropine and all estimations made in triplicate. At least two displacement curves were made for each compound tested.

[3] = cited from earlier work
[4] = cited from earlier work; remark: listed apart in the source
[5] = after peripheral administration; cited from earlier work

Row | SMILES | pIC50 [1] | pIC50 [2] | penetration of the blood-brain barrier ([3]; in vivo) | penetration of the blood-brain barrier ([3]; after peripheral administration) | hydrolysis of the ester group in vivo [4] | central effects [5]
1 | COc1noc2c1CNCCC2 [Example 5, 3-Methoxy-5,6,7,8-tetrahydro-4H-isoxazolo[4,5-c]azepine Hydrochloride] | 6.61 | 8.55 |  |  |  | 
2 | C#CCOc1noc2c1CNCCC2 [Example 9, 3-(2-Propynyloxy)-5,6,7,8-tetrahydro-4H-isoxazolo [4,5-c]azepine Hydrochloride] | 7.80 | 9.47 |  |  |  | 
3 | CC(C)Oc1noc2c1CNCCC2 [Example 6, 3-Isopropoxy-5,6,7,8-tetrahydro-4H-isoxazolo[4,5-c]azepine Hydrochloride] | 8.30 | 8.08 |  |  |  | 
4 | CCOc1noc2c1CNCCC2 [Example 4, 3-Ethoxy-5,6,7,8-tetrahydro-4H-isoxazolo[4,5-c]azepine Hydrochloride] | 7.96 | 9.31 |  |  |  | 
5 | COc1noc2c1CNCC2 [O-Methyl-THPO, reference compound] | 5.07 | 7.21 |  |  |  | 
6 | C#CCOc1noc2c1CNCCC2C (centres unmarked) [Example 14, 8-Methyl-3-(2-propynyloxy)-5,6,7,8-tetrahydro-4H-isoxazolo 4,5-c azepine, Fumarate] | 7.80 | 9.03 |  |  |  | 
7 | CC(=O)OCC[N+](C)(C)C [AcCh, acetylcholine] |  |  | do not penetrate the blood-brain barrier (BBB) easily |  |  | 
8 | COC(=O)C1=CCCN(C)C1 [Arecoline, methyl 1-methyl-1,2,5,6-tetrahydropyridine-3-carboxylate] |  | 8.72 |  | capable of penetrating the BBB after peripheral administration | very rapidly hydrolyzed in vivo | very weak and frequently negligible central effects
